US20120020876A1, “HEDGEHOG PATHWAY INHIBITORS” (priority 2009, published 2012)
Entries after “also recorded” stand apart in the source; their conditions may differ.

Experiments:
[1] = Gd-DTPA delivery by DCE-MRI; format: in vivo, mouse; conditions: 0.1 mmol/kg Gd-DTPA
Description: Magnetic resonance imaging experiments were carried out on a Varian MRI system (Varian, Inc, Palo Alto, Calif., USA) equipped with a 9.4T horizontal bore cryo-cooled superconducting magnet of 210 mm bore and a gradient set of strength 40 G/cm, 120 μsec risetime and internal diameter 120 mm. The imaging probe used was a Varian Millipede of 40 mm internal diameter. Mice were anaesthetized with Hypnorm/Hypnovel. Anatomical images were obtained using coronal T2-weighted fast spin-echo (repetition time TR=2000 ms, effective echo time TE=25 ms, echo train length 8 echoes, 512×512 points, field of view 80×80 mm, slice thickness/gap 1.5/0.5 mm, 12-15 slices) with chemical shift-selective fat suppression and respiratory gating. All other images were matched to the slice positions and field of view of the anatomical images. […] DCE-MRI data were analyzed in software custom-written in MATLAB 7.4 (The Mathworks, Inc, Natick, Mass., USA) using the model of Tofts and Kermode to evaluate the pharmacokinetic parameters Ktrans and ve, and additionally calculating the area under the [gadolinium]-time curve over the first 60 seconds post-injection (IAUGC60), as recommended by a panel of experts for vascular-related studies in oncology.

[2] = Vascular labeling and drug diffusion: doxorubicin delivery by confocal microscopy; format: in vivo, mouse; conditions: in comparison to control tissues and transplanted tumors; i.v. with lectin
Description: To assess the functional vasculature, biotin-conjugated Lycopersicon esculentum lectin (B1175-1 mg, Vector Laboratories) was resuspended in 425 μL PBS and mixed with 75 μL of 1 mg/mL Streptavidin-AlexaFluor 633 (S21375, Molecular Probes) (in sterile PBS). Prior to use, the lectin-avidin mixture was centrifuged 14,000 k on a microfuge for 10 minutes to remove any particulate. Fifteen minutes prior to euthanasia, 100 μl (0.4 mg total) of the conjugated lectin was administered as a slow intravenous infusion over 5 minutes, and the hemodynamics monitored closely to ensure that it was tolerated. For doxorubicin experiments, five minutes prior to euthanasia mice were also infused with a 20 mg/kg doxorubicin solution (D-1515.10 mg, in sterile saline, Sigma) over one minute.
While under terminal anesthesia, mice were perfused with 4% paraformaldehyde in PBS, pH 7.4. Perfused tissues were harvested, fixed overnight in 4% paraformaldehyde in PBS, pH 7.4 and transferred to 70% ethanol. Tissues were embedded in paraffin, sectioned, rehydrated, and counterstained with DAPI. The lectin labeling experiments were reproduced independently in a second laboratory (SRH, KI).
Mice were infused with 30 ml of 4% PFA pH 7.4 using a Harvard Apparatus PhD 2000 syringe pump at a rate of […]. […] Doxorubicin fluorescence was excited with a 488 nm laser, and emission was detected in a range from 520-620 nm. […]

[3] = system: KPC pancreatic tumors; test: Monitoring of KPC pancreatic tumor volume by 3D high resolution ultrasonography; format: in vivo, mouse; conditions: gemcitabine 100 mg/kg twice weekly, Compound A 40 ug/kg/day, or both
From the text: For survival studies, mice were enrolled following the detection of 5-10 mm diameter tumor by ultrasound. Tumors were quantified by 3D ultrasound twice weekly until endpoint. High resolution ultrasound (US) imaging of normal and diseased mouse pancreas using the Vevo 770 System with a 35 MHz RMV scanhead (Visual Sonics, Inc.). 3D images were produced using the 3D motor arm to collect serial images at 0.25 mm intervals through the thickness of the tumor. Tumors were outlined on each 2D image and reconstructed to quantify the 3D volume using the integrated Vevo 770 software package.

[4] = system: pancreatic tumors in KPC mice; test: Survival study of tumor-bearing KPC mice; format: in vivo, mouse; conditions: KPC mice enrolled with 5-10 mm tumors
Description: vehicles: 20 μL/g 0.85% NaCl+8 μL/g 5% HPBCD;
Compound A: 40 mg/kg Compound A+20 μL/g 0.85% NaCl;
For survival studies, mice were enrolled following the detection of 5-10 mm diameter tumor by ultrasound. Tumors were quantified by 3D ultrasound twice weekly until endpoint.

[5] = 19F NMR of fluorinated gemcitabine metabolites in tissue; format: in vivo, mouse; conditions: six hours after gemcitabine dosage; pilot experiments
Description: Mice were treated with indicated regiments for 12 days. […] Tissues were rapidly dissected and snap frozen in liquid nitrogen. Tissue specimens were maintained at −80° C. until subjected to nucleotide extraction. Samples were homogenized in a Qiagen TissueLyser with a 5 mm ball bearing for 2×6 minutes at 25 KHz, in the presence of 4 volumes of ice-cold acetonitrile (μL acetonitrile=4×[…] of tissue). An equal volume of water was added and then the sample was spun at 14,000 rpm for 10 minutes at 4° C. Supernatant was freeze dried, resuspended in 600 μL of D2O and transferred to a 5 mm standard NMR tube (Wilmad) for ^19F NMR analysis on a Bruker 600 MHZ (14.1T) Avance NMR spectrometer using a QNP probe. Acquisition parameters included a 1D pulse sequence of ^19F observation and inverse-gated ^1H decoupling, spectral sweep width of 177 ppm (100000 Hz), 4096 scans and 1.65 sec of repetition time. Total acquisition time for each sample was about 1 hr 55 min. Trichloro-fluoro-methane was used for ^19F NMR chemical shift calibrations. A broad hump observed in the baseline of ^19F NMR spectra was removed by application of Linear-prediction (LP) back projection to the time domain data by using 2000 (number of LP) coefficients and 128 back-prediction points prior to Fourier transformation and phase correction. […]

[6] = system: KPC tumors; test: Proliferation of KPC tumors (phospho-histone H3 immunohistochemistry); format: in vivo, mouse; conditions: 4 days or 8-12 days of treatment
Description: (§1) Tissues were fixed in 10% formalin solution for 24 hours and transferred to 70% ethanol. Tissues were paraffin embedded, sectioned and rehydrated. For CD31 IHC, sections were unmasked in 10 mM EDTA, pH 8.0 in a pressure cooker. For all other antibodies, sections were unmasked in 10 mM citric acid in a pressure cooker. Endogenous peroxidases were quenched in 3% H2O2/PBS for 20 minutes. Remaining steps were carried out with Vectastain ABC kits appropriate to the species of primary antibody (Vector Labs, Burlingame, Calif.) with the following modification: blocking serum was supplemented with Protein Blocking Agent (Immunotech/BeckmanCoulter, Fullerton, Calif.) diluted 1:50. Antigens were developed with DAB Peroxidase Substrate (Vector Labs). The following antibody dilutions were used: Phospho-Histone H3, 1:100 (#9701, Cell Signaling Technology); Cleaved Caspase 3, 1:100 (#9661, Cell Signaling Technology); CD31, 1:75 (SC-1506). Slides were counterstained with hematoxylin.

[7] = system: KPC tumors; test: Apoptosis in KPC tumors (Cleaved Caspase 3 immunohistochemistry); format: in vivo, mouse
Description: as §1

[8] = system: KPC tumors; test: Histology (H&E) of treated KPC tumors; format: in vivo, mouse; conditions: KPC tumors after 8-12 days of treatment
[9] = system: transplanted pancreatic tumors; test: Growth of subcutaneous and orthotopic transplanted pancreatic tumors; format: in vivo; conditions: transplantation models of human or mouse origin; gemcitabine Q3Dx4, 12 days
Description: The human pancreatic cancer cell line AsPc1 was cultured according to instructions. Mouse pancreatic cancer cell lines […], […] and DT8082 were isolated from tumors arising in KPC mice using a modification of the protocol described by Schreiber et al., Gastroenterology (20004) 127:250. Briefly, a 3 mm^3 fragment of PDA was excised, washed in 10 mL of cold PBS, and then finely diced with sterile razors. Cells were incubated in 10 mL of collagenase solution at 37° C. for 30-45 minutes with mixing (1 mg/mL collagenase V in DMEM/F12). Cells were spun (100 rpm, 5 min.) and resuspended in 0.05% Trypsin/EDTA for 5 min. at 37° C., and then quenched with DMEM supplemented with 10% fetal calf serum and 96 μM CaCl2. Cells were washed 3 times with DMEM/F12 medium and plated in a 6-well Biocoat dish (Becton Dickenson) in the ductal cell medium. After 3-4 passages, cells were transferred to standard plastic tissue culture dishes and grown in DMEM+10% FCS. 1×10^6 cells suspended in 100 μL of PBS were injected subcutaneously into the flanks of nude mice (xenografts) or into immunocompetent mice (syngeneic). For syngeneic models, recipient mice were descended from mice used to generate the KPC PDA cell lines. […] Long (L) and short (S) axes of each tumor were measured with calipers (for subcutaneous tumors) or ultrasound (for orthotopic tumors). Tumor volume (V) was calculated: V=(L×S^2)/2. […]

[10] = Gemcitabine (dFdC) in blood of normal mice by HPLC; format: in vivo, mouse
[11] = Determination of dFdCTP in tissues by HPLC; format: in vivo, mouse; conditions: 50 or 100 mg/kg gemcitabine i.p., 4 h
Description: Tissues were rapidly dissected and snap frozen in liquid nitrogen. Specimens were maintained at −80° C. until nucleotide extraction. Specimens were ground under liquid nitrogen with a mortar and pestle. The powdered contents were suspended in 0.4N perchloric acid and sonicated in an ice bath. Solids were removed by centrifugation, the pellet was washed with perchloric acid, and the supernatants were combined. Following neutralization with KOH and removal of KClO4 by centrifugation, a portion of the supernatant was analyzed by high-pressure liquid chromatography. The amount of gemcitabine triphosphate was normalized to the ATP level determined in the same sample analysis. Samples with inadequate concentrations of ATP were excluded from analysis.

[12] = system: transplanted pancreatic tumors; test: Proliferation of transplanted tumors (phospho-histone H3 immunohistochemistry); format: in vivo, mouse; conditions: gemcitabine Q3Dx4
Description: (§2) 1×10^6 cells suspended in 100 μL of PBS were injected subcutaneously into the flanks of nude mice (xenografts) or into immunocompetent mice (syngeneic). For syngeneic models, recipient mice were descended from mice used to generate the KPC PDA cell lines. Orthotopic tumors with MiaPaca2 were generated as previously described (Niedergethmann et al., Br J Cancer 97, 1432 (Nov. 19, 2007)). Long (L) and short (S) axes of each tumor were measured with calipers (for subcutaneous tumors) or ultrasound (for orthotopic tumors). Tumor volume (V) was calculated: V=(L×S^2)/2. Tumor volumes were normalized relative to the volume at the start of drug treatment for subcutaneous tumors. […] Tumor images were acquired using a pediatric ultrasound machine. This machine was not equipped for 3D reconstruction, so the same formula V=(L×S^2)/2 was used to estimate the tumor volumes and changes. […] When appropriate, a fifth dose was given on the final day four hours prior to necropsy for pharmacological analyses.
(§3) Tissues were fixed in 10% formalin solution for 24 hours and transferred to 70% ethanol. Tissues were paraffin embedded, sectioned and rehydrated. For CD31 IHC, sections were unmasked in 10 mM EDTA, pH 8.0 in a pressure cooker. For all other antibodies, sections were unmasked in 10 mM citric acid in a pressure cooker. Endogenous peroxidases were quenched in 3% H2O2/PBS for 20 minutes. […]

[13] = system: transplanted pancreatic tumors; test: Apoptosis in transplanted tumors (cleaved caspase 3 immunohistochemistry); format: in vivo, mouse; conditions: gemcitabine Q3Dx4
Description: as §2, §3

[14] = system: pancreatic ductal adenocarcinoma; conditions: cited from earlier work

With O=C([O-])CN(CCN(CC(=O)[O-])CC(=O)O)CCN(CC(=O)[O-])CC(=O)O.[Gd+3] [Gd-DTPA, gadolinium-diethyltriaminepentaacetic acid] the “Gd-DTPA enhancement within KPC tumors” value [1] was “little or no enhancement within the tumor body”.

With COc1cccc2c1C(=O)c1c(O)c3c(c(O)c1C2=O)C[C@@](O)(C(=O)CO)C[C@@H]3O[C@H]1C[C@H](N)[C@H](O)[C@H](C)O1 [doxorubicin] the “doxorubicin delivery to KPC pancreatic tumors” value [2] was “marked decrease in doxorubicin delivery”.

With Nc1ccn([C@@H]2O[C@H](CO)[C@@H](O)C2(F)F)c(=O)n1 [gemcitabine, 2′,2′-difluorodeoxycytidine] the “objective (ultrasonographic) response, responding mice/treated mice” value [3] was 2/10, the “effect on survival of KPC mice” value [4] was “Neither gemcitabine nor Compound A treatment had an effect on the survival” and the “19F signals in PDA and control tissues” value [5] was “absent”. For the same molecule, the “proliferation of KPC tumors” value [6] was “significantly diminished; also recorded: decreased”, the “apoptosis in KPC tumors” value [7] was “unchanged in most KPC tumors” and the “tumor stroma / histological pattern” value [8] was “dense stromal matrix”. For the same molecule, the “tumor growth of transplanted tumors” value [9] was “substantial inhibition of tumor growth”, the “half-life of gemcitabine in circulating blood” value [10] was “short half-life” and the “dFdCTP in KPC tumors” value [11] was “absent”. For the same molecule, the “dFdCTP in transplanted tumor tissues and control tissues” value [11] was “present”, the “proliferative rate of transplanted tumors” value [12] was “significantly lower proliferative rates” and the “apoptosis in transplanted tumors” value [13] was “no significant changes in apoptosis”. For the same molecule, the extension of survival ([14]; pancreatic ductal adenocarcinoma, standard-of-care therapy) was “a few weeks” and the “patients with objective radiographic response at the primary tumor site” value ([14]; patients, Tempero et al. 2003) was 5-10%.
